Measured values published in ChEMBL document CHEMBL5058564, “EUbOPEN Chemogenomics Library 2 (Incucyte)” (2022).

Legend:
Assay type in all cases: toxicity, cell-based
U2OS = test: Incucyte cell viability with U2OS; settings: human, 10 µM, compound concentration 10 uM
HEK-293T = test: Incucyte cell viability with HEK293T; settings: human, 10 µM, compound concentration 10 uM
Fibroblast = test: Incucyte cell viability with human fibroblast; settings: 10 µM, compound concentration 10 uM
[1] = 0 h, replicate number 1, timepoint 0 hours
[2] = 0 h, replicate number 2, timepoint 0 hours
[3] = 6 h, replicate number 1, timepoint 6 hours
[4] = 6 h, replicate number 2, timepoint 6 hours
[5] = 12 h, replicate number 1, timepoint 12 hours
[6] = 12 h, replicate number 2, timepoint 12 hours
[7] = 18 h, replicate number 1, timepoint 18 hours
[8] = 18 h, replicate number 2, timepoint 18 hours
[9] = 24 h, replicate number 1, timepoint 24 hours
[10] = 24 h, replicate number 2, timepoint 24 hours
Further: unitless GR value; below 1 slowed growth and below 0 cell loss.

SMILES	Growth Rate (U2OS; [1])	Growth Rate (U2OS; [2])	Growth Rate (U2OS; [7])	Growth Rate (U2OS; [10])	Growth Rate (HEK-293T; [3])	Growth Rate (HEK-293T; [4])	Growth Rate (HEK-293T; [5])	Growth Rate (HEK-293T; [6])	Growth Rate (HEK-293T; [7])	Growth Rate (HEK-293T; [8])	Growth Rate (HEK-293T; [9])	Growth Rate (HEK-293T; [10])	Growth Rate (Fibroblast; [3])	Growth Rate (Fibroblast; [4])	Growth Rate (Fibroblast; [5])	Growth Rate (Fibroblast; [6])	Growth Rate (Fibroblast; [7])	Growth Rate (Fibroblast; [9])	Growth Rate (Fibroblast; [10])	Growth Rate (Fibroblast; [1])	also measured
Cc1cc(O)c(-c2ccc([C@@H](C)CN(C)C)cc2)c2c1[nH]c(=O)c1sccc12	-0.17	1	0.13	0.09	-0.8	-0.77	-0.64	-0.63	-0.48	-0.52	-0.37	-0.4	-0.87	-0.66	-0.63	-0.4	-0.6	-0.36	-0.25	–	Growth Rate (U2OS; [3]): 0.74; Growth Rate (U2OS; [4]): 0.66; Growth Rate (U2OS; [5]): 0.65; Growth Rate (U2OS; [6]): 0.31; Growth Rate (U2OS; [8]): 0.18; Growth Rate (U2OS; [9]): 0.16; Growth Rate (Fibroblast; [8]): -0.3
Cc1nc(C#Cc2cccnc2)cs1.Cl	0	0.3	0.97	–	0.68	–	0.63	0.87	0.84	0.94	0.76	0.73	0.49	0.58	0.32	–	0.37	0.25	–	–	Growth Rate (U2OS; [4]): 0.72; Growth Rate (U2OS; [6]): 0.84; Growth Rate (HEK-293T; [1]): 0.27; Growth Rate (HEK-293T; [2]): 0.23; Growth Rate (Fibroblast; [2]): 0.91
CC(C)c1c(NC(=O)Nc2ccc(Cl)cc2)c(=O)n(-c2ccccc2)n1C	-0.9	-0.97	–	–	–	0.74	0.65	0.96	0.55	–	0.53	0.96	0.31	–	0.35	0.54	0.76	0.69	0.44	0.29	Growth Rate (HEK-293T; [2]): 0.92; Growth Rate (Fibroblast; [2]): 0.39; Growth Rate (Fibroblast; [8]): 0.54
Cc1cc(Cn2cnc3c2C[C@@H](C(=O)O)N(C(=O)C(c2ccccc2)c2ccccc2)C3)ccc1N(C)C	–	0.34	–	0.97	0.56	0.61	0.72	0.75	0.7	0.99	0.85	–	0.22	–	–	–	0.53	0.39	0.88	0.15	Growth Rate (Fibroblast; [8]): 0.97
CC(C)(C)c1ccc(S(=O)(=O)Nc2ccc(Cl)cc2C(=O)c2cc[n+]([O-])cc2)cc1 [VERCIRNON]	–	-1	0.78	–	0.87	0.35	–	0.73	–	0.91	–	–	–	–	–	–	1	0.69	–	0.29	Growth Rate (U2OS; [3]): 0.94; Growth Rate (Fibroblast; [2]): 0.25
CCCCCCCCCCCCC/C=C/[C@@H](O)[C@@H](N)COP(=O)(O)O	–	0.31	0.99	0.89	-0.22	-0.17	0.04	0.22	0.27	–	0.48	0.52	-0.68	-0.13	0.19	0.17	0.53	0.82	0.63	–	Growth Rate (U2OS; [5]): 0.95; Growth Rate (U2OS; [8]): 0.89; Growth Rate (U2OS; [9]): 0.88
CC1=C(C)C(=O)C(C(CCCCCC(=O)O)c2ccccc2)=C(C)C1=O (configuration not stated) [SERATRODAST]	-0.5	-1	–	0.99	–	0.54	–	0.63	–	–	–	–	0.67	–	–	–	–	–	–	1	–
